Columns and labels:
IGROV-1 = experiment: Growth inhibition of human IGROV1 cells assessed as cell growth at 10 uM after 48 hrs by sulforhodamine B assay; assay type: functional; settings: IGROV-1, 48 h, read-out: Activity
MDA-MB-231 = experiment: Growth inhibition of human MDA-MB-231 cells assessed as cell growth at 10 uM after 48 hrs by sulforhodamine B assay; assay type: functional; settings: MDA-MB-231, 48 h, read-out: Activity
HOP-92 [1] = experiment: Growth inhibition of human HOP92 cells after 48 hrs by sulforhodamine B assay; assay type: functional, cell-based; settings: HOP-92, 48 h
[2] = Growth inhibition of human HCC2998 cells assessed as cell growth at 10 uM after 48 hrs by sulforhodamine B assay; assay type: functional; settings: HCC 2998, 48 h, read-out: Activity
K562 [3] = experiment: Growth inhibition of human K562 cells after 48 hrs by sulforhodamine B assay; assay type: functional; settings: K562, 48 h
RXF 393 = experiment: Growth inhibition of human RXF393 cells assessed as cell growth at 10 uM after 48 hrs by sulforhodamine B assay; assay type: functional; settings: RXF 393, 48 h, read-out: Activity
NCI-H322M = experiment: Growth inhibition of human NCI-H322M cells after 48 hrs by sulforhodamine B assay; assay type: functional
Malme-3M = experiment: Growth inhibition of human MALME-3M cells assessed as cell growth at 10 uM after 48 hrs by sulforhodamine B assay; assay type: functional; settings: read-out: Activity
A549 [4] = experiment: Growth inhibition of human A549/ATCC cells assessed as cell growth at 10 uM after 48 hrs by sulforhodamine B assay; assay type: functional; settings: A549, 48 h, read-out: Activity
SK-MEL-2 [5] = experiment: Growth inhibition of human SK-MEL-2 cells assessed as cell growth at 10 uM after 48 hrs by sulforhodamine B assay; assay type: functional; settings: SK-MEL-2, 48 h, read-out: Activity
CCRF-CEM = experiment: Growth inhibition of human CCRF-CEM cells assessed as cell growth at 10 uM after 48 hrs by sulforhodamine B assay; assay type: functional; settings: read-out: Activity
OVCAR-3 = experiment: Growth inhibition of human OVCAR3 cells after 48 hrs by sulforhodamine B assay; assay type: functional, cell-based; settings: OVCAR-3, 48 h
MCF7 = experiment: Growth inhibition of human MCF7 cells after 48 hrs by sulforhodamine B assay; assay type: functional; settings: MCF7, 48 h
HL-60(TB) = experiment: Growth inhibition of human HL-60(TB) cells after 48 hrs by sulforhodamine B assay; assay type: functional; settings: HL-60, 48 h
SNB-19 = experiment: Growth inhibition of human SNB19 cells assessed as cell growth at 10 uM after 48 hrs by sulforhodamine B assay; assay type: functional; settings: SNB-19, 48 h, read-out: Activity
A549 [6] = experiment: Growth inhibition of human A549/ATCC cells after 48 hrs by sulforhodamine B assay; assay type: functional; settings: A549, 48 h
SN12C = experiment: Growth inhibition of human SN12C cells after 48 hrs by sulforhodamine B assay; assay type: functional
LOX IMVI = experiment: Growth inhibition of human LOXIMVI cells after 48 hrs by sulforhodamine B assay; assay type: functional
[7] = Growth inhibition of human Hs 578T cells after 48 hrs by sulforhodamine B assay; assay type: functional
SK-MEL-2 [8] = experiment: Growth inhibition of human SK-MEL-2 cells after 48 hrs by sulforhodamine B assay; assay type: functional; settings: SK-MEL-2, 48 h
RPMI-8226 = experiment: Growth inhibition of human RPMI8226 cells after 48 hrs by sulforhodamine B assay; assay type: functional, cell-based; settings: RPMI-8226, 48 h
MDA-MB-468 [9] = experiment: Growth inhibition of human MDA-MB-468 cells assessed as cell growth at 10 uM after 48 hrs by sulforhodamine B assay; assay type: functional; settings: MDA-MB-468, 48 h, read-out: Activity
K562 [10] = experiment: Growth inhibition of human K562 cells assessed as cell growth at 10 uM after 48 hrs by sulforhodamine B assay; assay type: functional; settings: K562, 48 h, read-out: Activity
HCT-15 = experiment: Growth inhibition of human HCT15 cells assessed as cell growth at 10 uM after 48 hrs by sulforhodamine B assay; assay type: functional; settings: HCT-15, 48 h, read-out: Activity
SNB-75 = experiment: Growth inhibition of human SNB75 cells after 48 hrs by sulforhodamine B assay; assay type: functional; settings: SNB-75, 48 h
T47D = experiment: Growth inhibition of human T47D cells after 48 hrs by sulforhodamine B assay; assay type: functional
KM12 = experiment: Growth inhibition of human KM12 cells after 48 hrs by sulforhodamine B assay; assay type: functional, cell-based; settings: KM12, 48 h
TK-10 [11] = experiment: Growth inhibition of human TK10 cells after 48 hrs by sulforhodamine B assay; assay type: functional; settings: TK-10, 48 h
NCI-H226 = experiment: Growth inhibition of human NCI-H226 cells after 48 hrs by sulforhodamine B assay; assay type: functional; settings: NCI-H226, 48 h
HOP-92 [12] = experiment: Growth inhibition of human HOP92 cells assessed as cell growth at 10 uM after 48 hrs by sulforhodamine B assay; assay type: functional; settings: HOP-92, 48 h, read-out: Activity
MDA-MB-468 [13] = experiment: Growth inhibition of human MDA-MB-468 cells after 48 hrs by sulforhodamine B assay; assay type: functional, cell-based; settings: MDA-MB-468, 48 h
NCI-H460 = experiment: Growth inhibition of human NCI-H460 cells assessed as cell growth at 10 uM after 48 hrs by sulforhodamine B assay; assay type: functional; settings: NCI-H460, 48 h, read-out: Activity
DU-145 = experiment: Growth inhibition of human DU145 cells after 48 hrs by sulforhodamine B assay; assay type: functional; settings: DU-145, 48 h
TK-10 [14] = experiment: Growth inhibition of human TK10 cells assessed as cell growth at 10 uM after 48 hrs by sulforhodamine B assay; assay type: functional; settings: TK-10, 48 h, read-out: Activity
[15] = read-out: LC50 (the source's name)

Compound: COc1cc(-c2nn(-c3cccc(NC(=O)Nc4cc(C(F)(F)F)cc(C(F)(F)F)c4)c3)cc2-c2ccncc2)ccc1Cl
- growth at 10 µM (IGROV-1): 19.9%
- growth at 10 µM (MDA-MB-231): -92%
- GI50 (HOP-92 [1]): 0.144 µM
- IC50 (HOP-92 [1]): 0.14 µM
- LC50 (HOP-92 [1]): 4.72 µM
- TGI (HOP-92 [1]): 1.15 µM
- growth at 10 µM [2]: -10.8%
- GI50 (K562 [3]): 0.363 µM
- TGI (K562 [3]): 3.25 µM
- CC50 (K562 [3]; [15]): > 50 µM
- growth at 10 µM (RXF 393): -68.1%
- GI50 (NCI-H322M): 1.02 µM
- TGI (NCI-H322M): 3 µM
- CC50 (NCI-H322M; [15]): 29.9 µM
- growth at 10 µM (Malme-3M): -10.7%
- growth at 10 µM (A549 [4]): -23.8%
- growth at 10 µM (SK-MEL-2 [5]): -52.1%
- growth at 10 µM (CCRF-CEM): -27.3%
- GI50 (OVCAR-3): 0.411 µM
- IC50 (OVCAR-3): 0.41 µM
- TGI (OVCAR-3): 1.23 µM
- CC50 (OVCAR-3; [15]): 3.39 µM
- GI50 (MCF7): 0.933 µM
- LC50 (MCF7): > 50 µM
- TGI (MCF7): 10.9 µM
- GI50 (HL-60(TB)): 1.18 µM
- TGI (HL-60(TB)): > 50 µM
- CC50 (HL-60(TB); [15]): > 50 µM
- growth at 10 µM (SNB-19): 6.55%
- GI50 (A549 [6]): 0.527 µM
- LC50 (concentration killing 50% of starting cells) (A549 [6]): 18 µM
- TGI (A549 [6]): 2.13 µM
- GI50 (SN12C): 0.932 µM
- TGI (SN12C): 3.32 µM
- CC50 (SN12C; [15]): > 50 µM
- GI50 (LOX IMVI): 0.783 µM
- LC50 (LOX IMVI): 2.94 µM
- TGI (LOX IMVI): 1.52 µM
- GI50 [7]: 1.04 µM
- TGI [7]: 3.68 µM
- CC50 [7, 15]: > 50 µM
- GI50 (SK-MEL-2 [8]): 1.02 µM
- LC50 (50% lethal concentration) (SK-MEL-2 [8]): 3.71 µM
- TGI (SK-MEL-2 [8]): 1.95 µM
- GI50 (RPMI-8226): 0.307 µM
- IC50 (RPMI-8226): 0.31 µM
- TGI (RPMI-8226): > 50 µM
- CC50 (RPMI-8226; [15]): > 50 µM
- growth at 10 µM (MDA-MB-468 [9]): -25.4%
- growth at 10 µM (K562 [10]): -10.7%
- growth at 10 µM (HCT-15): 2.59%
- GI50 (SNB-75): 0.858 µM
- LC50 (lethal concentration, 50% net cell kill) (SNB-75): 5.31 µM
- TGI (SNB-75): 2.07 µM
- GI50 (T47D): 1.55 µM
- TGI (T47D): > 50 µM
- CC50 (T47D; [15]): > 50 µM
- GI50 (KM12): 0.531 µM
- IC50 (KM12): 0.53 µM
- TGI (KM12): 1.34 µM
- CC50 (KM12; [15]): 3.39 µM
- GI50 (TK-10 [11]): 0.894 µM
- TGI (TK-10 [11]): 2.48 µM
- CC50 (TK-10 [11]; [15]): 10.1 µM
- GI50 (NCI-H226): 1.36 µM
- TGI (NCI-H226): 21.8 µM
- CC50 (NCI-H226; [15]): > 50 µM
- growth at 10 µM (HOP-92 [12]): -50.2%
- GI50 (MDA-MB-468 [13]): 0.307 µM
- IC50 (MDA-MB-468 [13]): 0.31 µM
- TGI (MDA-MB-468 [13]): 1.54 µM
- CC50 (MDA-MB-468 [13]; [15]): 24.3 µM
- growth at 10 µM (NCI-H460): -49.7%
- GI50 (DU-145): 1.31 µM
- LC50 (DU-145): 21.1 µM
- TGI (DU-145): 5.04 µM
- growth at 10 µM (TK-10 [14]): -26.7%
